Source: patent US10537575B2, “Phosphodiesterase inhibitors to repair brain and/or retinal injury in human newborns” (priority 2016, dated 2020)

Columns and labels:
[1] = tested on: Long-Evans rat pups (term neonatal HIE model); type: in vivo; conditions: HI rat pups
Excerpt: The experiments were run in a dark environment (below 20 lux of illumination). The equipment consists of a 1.3 m-long glass plate with a dim fluorescent light coming from the side and beamed into the glass. The light reflected downwards by the rats' paws as they contact the glass floor is captured by a high-speed video camera placed under the walkway, and then transformed into a digital image ([…] et al., 2006; Hetze S et al., 2012; Lubjuhn J et al., 2009, […] et al., 2013, Wang Y et al., 2008). The walkway was 90 mm wide. The camera was positioned 40 cm below the walkway, and automatic detection settings were applied. The rat pups walked spontaneously at their own speed; the mother was systematically placed in the goal box to motivate the rat pups to run towards it. An intensity threshold was set to 0.1, the camera gain was set to 20, and the maximum allowed speed variation was set to 60%. A minimum of three quality runs per rat pups were acquired. Only uninterrupted runs were saved for analysis; runs, where animals turned or walked backwards, were excluded, and the animal got another try. […] Step sequence regularity index is a percent index for the degree of interlimb coordination during the gait, as measured by the number of normal step sequence patterns, multiplied by the number of paws and divided by the number of paw placements. […]

[2] = tested on: Long-Evans rat pups (term neonatal HIE model); test: Endothelial cells count (lectin staining) at P30; type: in vivo; conditions: HI, not significant
Method: Using the third slide prepared for each animal, an immunohistochemistry was used to assess the endothelial cells count. Sections were labeled with lectin (biotinylated isolectin B4) (Sigma-Aldrich: L2140, St-Louis, Mo., USA) (dilution 20 μg/mL in 0.1M tris-buffered saline [pH 7.4] and 0.5% Triton X-100, incubation time 2 hours at room temperature) (Springer M L et al., 2010). To detect lectin binding, the sections were incubated with streptavidin Alexa Fluor® 350 conjugate (Molecular Probes®, Life Technologies: S11249, Carlsbad, Calif., USA) dilution 1:300 in tris-buffered saline, incubation time 2 hours at room temperature (Ndode-Ekane X E et al., 2010). Then, these sections were rinsed with tris-buffered saline and cover slipped with Vectashield Mounting media containing 4,6-diamidino-2-phenylindole (DAPI) (Vector Laboratories: H1200, Burlingame, Calif., USA) to visualize cell nuclei (Ndode-Ekane X E et al., 2010; Hallene K L et al., 2006). The endothelial cells count was assessed as per previously described methods (Hallene K L et al., 2006, Iwai M et al., 2007; Noguchi T et al., 2008; Rigau V et al., 2007; Wintermark P et al., 2013). Cells co-labeled with lectin and DAPI were identified as endothelial cells (Springer M L et al., 2010; Hallene K L et al., 2006). To estimate the density of microvessels, single immunoreactive endothelial cells were counted as individual microvessels; endothelial staining in large vessels with tunica media were disregarded in the microvessel counts (Hallene K L et al., 2006, Iwai M et al., 2007; Noguchi T et al., 2008; Rigau V et al., 2007; Wintermark P et al., 2013; Shaikh H et al., 2015). […] One investigator took pictures of the respective fields of view at 10× magnification.

[3] = tested on: Sprague-Dawley rats (rat model of ROP); test: Flash electroretinograms in rat model of ROP (hyperoxia); type: in vivo; conditions: sildenafil 50 mg/kg per os twice daily P15 to P21, P29, p<0.05
Method: (§1) Sprague-Dawley rats were exposed to hyperoxia (i.e., 80% oxygen) interrupted by three 0.5-hour periods of normoxia (i.e., 21% oxygen) per day or room air only (i.e., 21% oxygen) from post-natal day 4 (P4) to 14 (P14). Pups were then housed in room air. […] Flash electroretinograms were recorded at P29 to assess the retinal function. At P31, retinas were extracted, sectioned and stained with toluidine blue to measure the thicknesses of the different retinal layers.

[4] = tested on: Sprague-Dawley rats (rat model of ROP); test: Retinal layer thickness in rat model of ROP (hyperoxia); type: in vivo; conditions: ROP animals; sildenafil 50 mg/kg per os twice daily P15 to P21; P31; p<0.05
Method: as §1

PDE6 = conditions: known; cited from earlier work

CCCc1nn(C)c2c(=O)[nH]c(-c3cc(S(=O)(=O)N4CCN(C)CC4)ccc3OCC)nc12 [sildenafil]
print length (gait) ([1]; high-dose of sildenafil): showed an increase
neurological deficits as measured by the gait analysis ([1]; sildenafil even in small doses): improvement of the neurological deficits
endothelial cells number, median (IQR) ([2]; sildenafil 2 mg/kg): 230 (158; 273) endothelial cells/mm^2
endothelial cells number, median (IQR) ([2]; sildenafil 10 mg/kg (first mention, medium-dose)): 196 (157; 225) endothelial cells/mm^2
endothelial cells number, median (IQR) ([2]; sildenafil 10 mg/kg as printed (second mention, third of low/medium/high)): 193 (151; 217) endothelial cells/mm^2
scotopic and photopic b-wave amplitudes [3]: improvement in scotopic and photopic b-wave amplitudes
OPL thickness [4]: improved OPL thickness
PDE6 inhibition (PDE6): inhibits PDE6, but with a reduced efficiency
